Measured values published in the supplement of paper PMC11451515.

What was measured:
Settings in all cases: 48 h
NOMO1 [1] = experiment: cell viability relative to DMSO control; higher = less cytotoxic
Procedure, shortened: (§1)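 Three leukemia lines were tested: NOMO1 and SEM at 500 cells/well and P12-Ichikawa at 1000 cells/well. Each was adapted for at least four passages in each medium and seeded in 5 μl in 1536-well plates, and library compounds in DMSO were pin-dosed from 47 μM to 0.79 nM in 11 threefold steps. After 48 h at 37°C, CellTiter-Glo One luminescence was read. Viability is a percentage relative to DMSO wells on each plate, with cell-free wells as background.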

P12-Ichikawa [2] = experiment: as above
Procedure, shortened: as §1

SEM cells [3] = experiment: as above
Procedure, shortened: as §1

NOMO1 [4] = experiment: AUC of viability dose-response curve (% viability x log10 dose units); higher = less sensitive
Procedure, shortened: (§2)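 Seeding of medium-adapted leukemia cells was at 500 or 1000 cells/well in 1536-well plates, followed by 48 h at 37°C with library compounds in DMSO at 11 threefold doses from 47 μM to 0.79 nM. CellTiter-Glo One luminescence was normalised per plate to DMSO and cell-free wells and fitted as a four-parameter log-logistic function of log10 dose. Area under the curve was integrated by trapezoidal rule, with curves exceeding full viability scaled and curves failing quality control removed.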

P12-Ichikawa [5] = experiment: as above
Procedure, shortened: as §2

SEM cells [6] = experiment: as above
Procedure, shortened: as §2

CC(C)(C)Cn1c(N)nc2ccc(-c3[nH]c(C(C)(C)C)nc3-c3ccc(F)cc3)nc21
cell viability [%]
Settings | NOMO1 [1] | P12-Ichikawa [2] | SEM cells [3]
HPLM + 10% dialyzed FBS, 0.000781 µM | 84.9 | 92.1 | 97.1
HPLM + 10% dialyzed FBS, 0.00234 µM | 84.6 | 96.3 | 94.9
HPLM + 10% dialyzed FBS, 0.00702 µM | 79.9 | 92.3 | 84.7
HPLM + 10% dialyzed FBS, 0.0211 µM | 78.4 | 96 | 87.8
HPLM + 10% dialyzed FBS, 0.0632 µM | 90.8 | 87.2 | 91.5
HPLM + 10% dialyzed FBS, 0.19 µM | 81 | 78.7 | 82.2
HPLM + 10% dialyzed FBS, 0.569 µM | 83.6 | 90.1 | 85.2
HPLM + 10% dialyzed FBS, 1.71 µM | 64.3 | 78.9 | 79.1
HPLM + 10% dialyzed FBS, 5.12 µM | 75.3 | 91.5 | 84.5
HPLM + 10% dialyzed FBS, 15.4 µM | 64.7 | 85.3 | 77.6
HPLM + 10% dialyzed FBS, 46.1 µM | 49.6 | 85.4 | 73.5
RPMI 5 mM glucose + 10% FBS, 0.000781 µM | 84.3 | 95.4 | 123
RPMI 5 mM glucose + 10% FBS, 0.00234 µM | 88.4 | 83.8 | 111
RPMI 5 mM glucose + 10% FBS, 0.00702 µM | 76.3 | 78.3 | 108
RPMI 5 mM glucose + 10% FBS, 0.0211 µM | 75.9 | 90.6 | 157
RPMI 5 mM glucose + 10% FBS, 0.0632 µM | 90.8 | 86.4 | 146
RPMI 5 mM glucose + 10% FBS, 0.19 µM | 79.9 | 94.1 | 78.1
RPMI 5 mM glucose + 10% FBS, 0.569 µM | 82.9 | 83 | 54.1
RPMI 5 mM glucose + 10% FBS, 1.71 µM | 87.2 | 81.2 | 88.5
RPMI 5 mM glucose + 10% FBS, 5.12 µM | 79.5 | 77.9 | 91.9
RPMI 5 mM glucose + 10% FBS, 15.4 µM | 83.2 | 95.5 | 15.4
RPMI 5 mM glucose + 10% FBS, 46.1 µM | 76.4 | 89.1 | 59.3
RPMI 5 mM glucose + 10% dialyzed FBS, 0.000781 µM | 85.3 | 85.8 | 102
RPMI 5 mM glucose + 10% dialyzed FBS, 0.00234 µM | 92.7 | 83.4 | 98.5
RPMI 5 mM glucose + 10% dialyzed FBS, 0.00702 µM | 93.5 | 85.4 | 79.3
RPMI 5 mM glucose + 10% dialyzed FBS, 0.0211 µM | 92.2 | 84.5 | 90.9
RPMI 5 mM glucose + 10% dialyzed FBS, 0.0632 µM | 87.7 | 86.1 | 106
RPMI 5 mM glucose + 10% dialyzed FBS, 0.19 µM | 90.3 | 89.1 | 87.9
RPMI 5 mM glucose + 10% dialyzed FBS, 0.569 µM | 73.1 | 83.6 | 90
RPMI 5 mM glucose + 10% dialyzed FBS, 1.71 µM | 73.3 | 84.1 | 87
RPMI 5 mM glucose + 10% dialyzed FBS, 5.12 µM | 92 | 77.9 | 85.3
RPMI 5 mM glucose + 10% dialyzed FBS, 15.4 µM | 81.2 | 83 | 13.4
RPMI 5 mM glucose + 10% dialyzed FBS, 46.1 µM | 71.4 | 81 | 98.2

AUC of viability dose-response curve
Settings | NOMO1 [4] | P12-Ichikawa [5] | SEM cells [6]
HPLM + 10% dialyzed FBS | 367 | 422 | 407
RPMI 5 mM glucose + 10% FBS | 392 | 414 | 347
RPMI 5 mM glucose + 10% dialyzed FBS | 405 | 401 | 412

Cc1cccc(N(C)C(=S)Oc2ccc3ccccc3c2)c1
cell viability [%]
Settings | NOMO1 [1] | P12-Ichikawa [2] | SEM cells [3]
HPLM + 10% dialyzed FBS, 0.000781 µM | 110 | 98.1 | 79.4
HPLM + 10% dialyzed FBS, 0.00234 µM | 120 | 114 | 91.8
HPLM + 10% dialyzed FBS, 0.00702 µM | 116 | 109 | 83.8
HPLM + 10% dialyzed FBS, 0.0211 µM | 124 | 109 | 98.8
HPLM + 10% dialyzed FBS, 0.0632 µM | 117 | 118 | 90.7
HPLM + 10% dialyzed FBS, 0.19 µM | 112 | 94.2 | 104
HPLM + 10% dialyzed FBS, 0.569 µM | 123 | 107 | 96.8
HPLM + 10% dialyzed FBS, 1.71 µM | 121 | 109 | 84.7
HPLM + 10% dialyzed FBS, 5.12 µM | 100 | 111 | 106
HPLM + 10% dialyzed FBS, 15.4 µM | 92 | 111 | 96.5
HPLM + 10% dialyzed FBS, 46.1 µM | 110 | 109 | 87.2
RPMI 5 mM glucose + 10% FBS, 0.000781 µM | 99.9 | 109 | 79.7
RPMI 5 mM glucose + 10% FBS, 0.00234 µM | 94.2 | 107 | 102
RPMI 5 mM glucose + 10% FBS, 0.00702 µM | 106 | 111 | 96.1
RPMI 5 mM glucose + 10% FBS, 0.0211 µM | 107 | 112 | 90.8
RPMI 5 mM glucose + 10% FBS, 0.0632 µM | 108 | 113 | 108
RPMI 5 mM glucose + 10% FBS, 0.19 µM | 98.8 | 116 | 86.7
RPMI 5 mM glucose + 10% FBS, 0.569 µM | 97.2 | 116 | 110
RPMI 5 mM glucose + 10% FBS, 1.71 µM | 97.3 | 112 | 109
RPMI 5 mM glucose + 10% FBS, 5.12 µM | 94.5 | 107 | 107
RPMI 5 mM glucose + 10% FBS, 15.4 µM | 103 | 99.6 | 99.4
RPMI 5 mM glucose + 10% FBS, 46.1 µM | 99.6 | 92.4 | 85
RPMI 5 mM glucose + 10% dialyzed FBS, 0.000781 µM | 98.1 | 95.1 | 95.6
RPMI 5 mM glucose + 10% dialyzed FBS, 0.00234 µM | 105 | 101 | 114
RPMI 5 mM glucose + 10% dialyzed FBS, 0.00702 µM | 99.8 | 104 | 102
RPMI 5 mM glucose + 10% dialyzed FBS, 0.0211 µM | 112 | 108 | 108
RPMI 5 mM glucose + 10% dialyzed FBS, 0.0632 µM | 99.8 | 104 | 108
RPMI 5 mM glucose + 10% dialyzed FBS, 0.19 µM | 95.2 | 109 | 96.7
RPMI 5 mM glucose + 10% dialyzed FBS, 0.569 µM | 107 | 106 | 129
RPMI 5 mM glucose + 10% dialyzed FBS, 1.71 µM | 110 | 109 | 117
RPMI 5 mM glucose + 10% dialyzed FBS, 5.12 µM | 104 | 103 | 115
RPMI 5 mM glucose + 10% dialyzed FBS, 15.4 µM | 101 | 104 | 101
RPMI 5 mM glucose + 10% dialyzed FBS, 46.1 µM | 106 | 80.4 | 89

AUC of viability dose-response curve
Settings | NOMO1 [4] | P12-Ichikawa [5] | SEM cells [6]
HPLM + 10% dialyzed FBS | 460 | 469 | 445
RPMI 5 mM glucose + 10% FBS | 470 | 466 | 470
RPMI 5 mM glucose + 10% dialyzed FBS | 469 | 471 | 476
